# Where two headings read alike, the source gives them in different places. Non-standard residues stand in square brackets, D forms with d. Residues, ends and D or L forms follow the SMILES beside them. Dap(N3) = [N-]=[N+]=NC[C@H](N)C(=O)O
# Tested on: E. coli (ATCC25922)
# Assay type: cell-based, Escherichia coli
# Details: for MIC (μg/ml), repeat 1 / MIC (μg/ml), repeat 2 / MIC (μg/ml), repeat 3: ATCC25922
# Excerpt: To determine how the cell killing ability of the vector-Bicycle variants changed when compared to the original vector, their antimicrobial activity was examined against a clinical strain of E. coli (ATCC25922) in cation-adjusted Mueller Hinton broth (CaMHB). The minimum inhibitory concentration (MIC) is defined as the lowest concentration of compound that completely prevents bacterial growth (Table 2). The unconjugated Bicycle molecule (AB1) and the original unconjugated vector (AV1) were used to make the MAP-Bicycle conjugate A1. All MAP-Bicycle conjugates contain the AB1 Bicycle molecule, linked to a variant of the original MAP (e.g., C2, S2, H6). The unconjugated MAP variants are labeled with the equivalent letter and number but with a “V” included in the name (e.g., CV2, SV2, HV6, see Table 1 for all vector variants).
# Bacterial stock was streaked onto LB agar plates and incubated at 37 °C for 16–18 h. Using a sterile swab, single colonies were picked and resuspended in 2 mL of 0.9% saline solution, visually matching the turbidity of a 0.5 McFarland standard and having an OD600 nm of 0.18–0.25 (which corresponds to […]). The suspension was diluted 200-fold in cation-adjusted Mueller–-Hinton Broth (Ca-MHB), and 100 μL of the diluted culture was pipetted in wells of a 96-well plate containing 100 μL of a 2-factor dilution series of a compound per row of wells. The plate was incubated at 37 °C for 19 h. Afterward, the OD600 nm of each well was read using a Pherastar FSX plate reader. MIC values were determined, with the MIC being the lowest concentration of the compound at which growth was absent (i.e., OD600 nm was equivalent to no growth, as observed in carbenicillin control wells). This was also verified visually. […]
# [1] = E. coli ATCC25922, CaMHB, 37 °C, 19 h, OD600 nm read, range of at least 3 biological repeats
Compound,"MIC (ATCC25922, 19 h) [µM]",MIC [1] [µg/mL],"MIC (μg/ml), repeat 1 [µg/mL]","MIC (μg/ml), repeat 2 [µg/mL]","MIC (μg/ml), repeat 3 [µg/mL]"
CC(C)C[C@@H](NC(=O)[C@@H](CCCNC(=N)N)NC(=O)[C@@H](CCCNC(=N)N)NC(=O)[C@H](NC(=O)[C@@H](Cc1c[nH]c2ccccc12)NC(=O)[C@@H](CCCNC(=N)N)NC(=O)[C@@H](CO)NC(=O)[C@@H](Cc1c[nH]c2ccccc12)NC(=O)[C@@H](CCCNC(=N)N)NC(=O)[C@@H](N)CN=[N+]=[N-])C(C)C)C(=O)N[C@H](CO)C(=O)N[C@H](CCCCN)C(N)=O [AV1] (H-[Dap(N3)][dR][dW][dS][dR][dW][dV][dR][dR][dL][dS][dK]-NH2; N-terminus and C-terminus assumed),19.5,32,–,–,–
CC(C)C[C@@H](NC(=O)[C@@H](CCCNC(=N)N)NC(=O)[C@@H](CCCNC(=N)N)NC(=O)[C@H](NC(=O)[C@@H](Cc1c[nH]c2ccccc12)NC(=O)[C@@H](CCCNC(=N)N)NC(=O)[C@@H](CO)NC(=O)[C@@H](CCCNC(=N)N)NC(=O)[C@@H](CCCNC(=N)N)NC(=O)[C@@H](N)CN=[N+]=[N-])C(C)C)C(=O)N[C@H](CO)C(=O)N[C@H](CCCCN)C(N)=O [CV1] (H-[Dap(N3)][dR][dR][dS][dR][dW][dV][dR][dR][dL][dS][dK]-NH2; N-terminus and C-terminus assumed),>39.7,–,> 64,> 64,> 64
CC(C)C[C@@H](NC(=O)[C@@H](CCCNC(=N)N)NC(=O)[C@@H](CCCNC(=N)N)NC(=O)[C@@H](CCCNC(=N)N)NC(=O)[C@@H](Cc1c[nH]c2ccccc12)NC(=O)[C@@H](CCCNC(=N)N)NC(=O)[C@@H](CO)NC(=O)[C@@H](Cc1c[nH]c2ccccc12)NC(=O)[C@@H](CCCNC(=N)N)NC(=O)[C@@H](N)CN=[N+]=[N-])C(=O)N[C@H](CO)C(=O)N[C@H](CCCCN)C(N)=O [CV4] (H-[Dap(N3)][dR][dW][dS][dR][dW][dR][dR][dR][dL][dS][dK]-NH2; N-terminus and C-terminus assumed),18.8,32,–,–,–
CC(C)C[C@@H](NC(=O)[C@@H](CCCNC(=N)N)NC(=O)[C@@H](CCCNC(=N)N)NC(=O)[C@H](NC(=O)[C@@H](CCCNC(=N)N)NC(=O)[C@@H](CCCNC(=N)N)NC(=O)[C@@H](CO)NC(=O)[C@@H](Cc1c[nH]c2ccccc12)NC(=O)[C@@H](CCCNC(=N)N)NC(=O)[C@@H](N)CN=[N+]=[N-])C(C)C)C(=O)N[C@H](CO)C(=O)N[C@H](CCCCN)C(N)=O [CV3] (H-[Dap(N3)][dR][dW][dS][dR][dR][dV][dR][dR][dL][dS][dK]-NH2; N-terminus and C-terminus assumed),>39.7,–,> 64,> 64,> 64
CC(C)C[C@@H](NC(=O)[C@@H](CCCNC(=N)N)NC(=O)[C@@H](CCCNC(=N)N)NC(=O)[C@H](NC(=O)[C@@H](Cc1c[nH]c2ccccc12)NC(=O)[C@@H](CCCNC(=N)N)NC(=O)[C@@H](CCCNC(=N)N)NC(=O)[C@@H](Cc1c[nH]c2ccccc12)NC(=O)[C@@H](CCCNC(=N)N)NC(=O)[C@@H](N)CN=[N+]=[N-])C(C)C)C(=O)N[C@H](CO)C(=O)N[C@H](CCCCN)C(N)=O [CV2] (H-[Dap(N3)][dR][dW][dR][dR][dW][dV][dR][dR][dL][dS][dK]-NH2; N-terminus and C-terminus assumed),9.4,16,–,–,–
"CAzal - dR dW dS dR dW dV dR dR dR dR dK – CONH2 [CV12, standalone MAP vector variant of AV1, double arginine substitution]",–,16,–,–,–
"CAzal - dR dW dS dR dW dV dR dR dL dR dK – CONH2 [CV6, standalone MAP vector variant of AV1, single arginine substitution]",–,16,–,–,–
CC(C)[C@@H](NC(=O)[C@@H](Cc1c[nH]c2ccccc12)NC(=O)[C@@H](CCCNC(=N)N)NC(=O)[C@@H](CO)NC(=O)[C@@H](Cc1c[nH]c2ccccc12)NC(=O)[C@@H](CCCNC(=N)N)NC(=O)[C@@H](N)CN=[N+]=[N-])C(=O)N[C@H](CCCNC(=N)N)C(=O)N[C@H](CCCNC(=N)N)C(=O)N[C@H](CCCNC(=N)N)C(=O)N[C@H](CO)C(=O)N[C@H](CCCCN)C(N)=O [CV5] (H-[Dap(N3)][dR][dW][dS][dR][dW][dV][dR][dR][dR][dS][dK]-NH2; N-terminus and C-terminus assumed),19,32,–,–,–
CC(C)C[C@@H](NC(=O)[C@@H](CCCNC(=N)N)NC(=O)[C@@H](CCCNC(=N)N)NC(=O)[C@H](NC(=O)[C@@H](Cc1c[nH]c2ccccc12)NC(=O)[C@@H](CCCNC(=N)N)NC(=O)[C@@H](CCCNC(=N)N)NC(=O)[C@@H](CCCNC(=N)N)NC(=O)[C@@H](CCCNC(=N)N)NC(=O)[C@@H](N)CN=[N+]=[N-])C(C)C)C(=O)N[C@H](CO)C(=O)N[C@H](CCCCN)C(N)=O [CV8] (H-[Dap(N3)][dR][dR][dR][dR][dW][dV][dR][dR][dL][dS][dK]-NH2; N-terminus and C-terminus assumed),–,–,64,64,> 64
